{"source": "patent US7129265B2", "about": "“Synergistic effects of amlodipine and atorvastatin metabolite as a basis for combination therapy” (priority 1999, dated 2006)", "key": {"[1]": {"system": "human LDL", "assay": "LDL oxidation determination (copper-induced, TBARS formation)", "assay_type": "biochemical", "conditions": "3.0 μM; 4 h incubation; copper 10.0 μM", "protocol": "The ability of these agents to inhibit LDL peroxidation was assessed in vitro following addition of copper (10.0 μM) by measuring the levels of thiobarbituric reactive substances (TBARS), a marker of lipid peroxidation. […] The EDTA content of the LDL samples obtained from human plasma was removed by gel filtration with PD-10 Sephadex […] filtration columns; PBS (nitrogen purged) was used as the eluent. The LDL samples (50 μg of protein/mL) were then preincubated with or without drug (3.0 μM) for 30 mm at 37° C. Oxidation of LDL was then induced by the addition of 10.0 μM CuSO4. The time course of LDL oxidation, measured by TBARS formation, was followed for 6 h at 37° C. ([…]. Potentiation of free radical-induced lipid peroxidative injury to sarcolemmal membranes by lipid amphiphiles. J. Biol. Chem. 1986; 261:1153-1157). […] The protein content of the LDL was determined using the Coomassie Protein Plus assay kit from Pierce Chemical. A rapid and sensitive method for the quantitation of microgram quantities of protein utilizing the principle of protein-dye binding. Anal. Biochem. 1976; 72:248-254)."}, "[2]": {"assay": "Small angle X-ray diffraction analysis of membrane bilayer structure", "assay_type": "physicochemical", "conditions": "drug to phospholipid 1:15; for overall membrane bilayer width, including surface hydration: without drug 55.5 Å", "procedure": "The lipids (1-palmitoyl-2-oleoyl phosphatidylcholine and cholesterol) used for these samples were dissolved in HPLC-grade chloroform (10.0 mg/ml). Membrane vesicles were produced from these lipids by the same method as described for the peroxidation experiments. The final phospholipid concentration was 5.0 mg/ml buffer and the mole ratio of drug to phospholipid was 1:15. Membrane samples were oriented for diffraction analysis by subjecting them to centrifugation as previously described (Chester D W, Herbette L G, Mason R P, Joslyn A F, Triggle D J, Koppel D E. Diffusion of dihydropyridine calcium channel antagonists in cardiac sarcolemmal lipid multibilayers. Biophys. J. 1987; 52:1021–1030). Briefly, vesicles were placed in sedimentation cells that contained an aluminum foil substrate. The vesicles were sedimented in an SW-28 rotor (Beckman Instruments Fullerton, Calif.) at 35,000×g for 1.5 h at 5° C. Following centrifugation, the supernatant was removed from the pellets and the samples were then mounted on to curved glass supports. Samples were placed in sealed canisters to control relative humidity and temperature during the diffraction experiments, as previously described in detail (Chester D W, Herbette L G, Mason R P, Joslyn A F, Triggle D J, Koppel D E. Diffusion of dihydropyridine calcium channel antagonists in cardiac sarcolemmal lipid multibilayers. Biophys. J. 1987; 52: 1021–1030).\nX-ray diffraction experiments were conducted by aligning the samples at grazing incidence with respect to a collimated, nickel-filtered monochromatic X-ray source (CuKα1.54 Å) produced by a high-brilliance rotating anode microfocus generator (Rigaku Rotaflex RU-200, Danvers, Mass.). The fixed geometry beam line consisted of a single, nickel-coated Franks mirror to define a line source where Kα and Kα are unresolved. […] The phases for the four-order data were determined by swelling analysis (Moody M F. X-ray diffraction pattern of nerve myelin: A method for determining the phases. Science 1963; 142:1173–117). […]"}, "[3]": {"assay": "Membrane lipid peroxidation analysis (CHOD-Iodide assay) in membrane vesicles", "assay_type": "biochemical", "procedure": "In these experiments, oxidation occurred in a gradual, time-dependent manner that was measured spectrophotometrically over a 72 h period.\nThe separate and combined dose-dependent antioxidant activities of these agents were examined in membranes enriched with PUFA prepared at a 0.5 cholesterol to phospholipid mole ratio (Mason R P, Walter M F, Trumbore M W, Olmstead Jr. E G, Mason P E. Membrane antioxidant effects of the charged dihydropyridine calcium antagonist amlodipine. J. Mol Cell. Cardiol. 1999; 31:275–281). The lipid (dilinoleoyl phosphatidylcholine and cholesterol) used for these samples was dissolved in HPLC-grade chloroform (25.0 mg/ml). […]\nMembrane lipid peroxidation was carried out at 37° C. in a shaking water bath without the addition of exogenous stimulants, as previously described in detail (Mason R P, Walter M F, Trumbore M W, Olmstead Jr. E G, Mason P E. Membrane antioxidant effects of the charged dihydropyridine calcium antagonist amlodipine. J. Mol. Cell. Cardiol. 1999; 31:275–281). […] The extent of membrane lipid peroxidation was measured by the CHOD-Iodide assay as previously described in detail (El-Saadani M, Esterbauer H, el-Sayed M, Goher M, Nassar A Y, Jurgens G. A spectrophotometric assay for lipid peroxides in serum lipoproteins using a commercially available reagent. J. Lipid. Res. 1989; 30:627–630). […]"}}}
{"smiles": "CCOC(=O)C1=C(COCCN)NC(C)=C(C(=O)OC)C1c1ccccc1Cl", "note": "(stereo not shown) [AML, amlodipine besylate]", "values": [{"measurement": "TBARS formation compared to control lipid peroxidation (100%)", "setting": "[1]", "value": "93.3±6", "unit": "%"}, {"measurement": "effect on membrane dimensions, in words", "setting": "[2]; includes intrabilayer headgroup separation", "value": "did not significantly alter membrane dimensions"}, {"measurement": "overall membrane bilayer width, including surface hydration", "setting": "[2]", "value": 54.8, "unit": "Å"}]}
{"smiles": "CC(C)c1c(C(=O)Nc2ccccc2O)c(-c2ccccc2)c(-c2ccc(F)cc2)n1CCC(O)CC(O)CC(=O)O", "note": "(stereo not shown) [ATM, ortho-hydroxy metabolite of atorvastatin]", "values": [{"measurement": "inhibition of lipid peroxidation", "setting": "[3]; 100.0 nM, membrane preparation enriched with cholesterol", "value": 9, "unit": "%"}, {"measurement": "TBARS formation compared to control lipid peroxidation (100%)", "setting": "[1]", "value": "65.6±7", "unit": "%"}, {"measurement": "overall membrane bilayer width, including surface hydration", "setting": "[2]", "value": 58.0, "unit": "Å"}]}
{"smiles": "Cc1c(C)c2c(c(C)c1O)CC[C@@](C)(CCC[C@H](C)CCC[C@H](C)CCCC(C)C)O2", "note": "[vitamin E, α-tocopherol]", "values": [{"measurement": "persistence of antioxidant effect over time", "setting": "[3]; 10.0 μM, incubation up to 72 h", "value": "could not be reproduced"}]}
